# Paper PMC7611906 (Nature chemical biology, 2021)
# Test system: caspase 3/7 in 22Rv1 cells
# Experiment: Caspase-Glo 3/7 assay 22Rv1
# Type: cell-based
# Conditions: read-out: EC50 Caspase-Glo 3/7, 24h
compound,measurement,value
Cc1ncsc1-c1ccc([C@H](C)NC(=O)[C@@H]2C[C@@H](O)CN2C(=O)[C@@H](NC(=O)COCCCOCCNC(=O)C[C@@H]2N=C(c3ccc(Cl)cc3)c3c(sc(C)c3C)-n3c(C)nnc32)C(C)(C)C)cc1 [ARV-771],EC50,90 nM
